Results on 10 compounds are retold here after patent US11267844B2, “Spirothietane nucleosides” (Janssen Pharmaceutica NV, priority 2017, dated 2022).

In data set [1] the test system is DENV-2/16681/eGFP. Briefly: Antiviral activity against DENV-2/16681/eGFP in Vero cells (eGFP read-out). Particulars: Dengue virus, DENV2, Vero, 72 h, read-out: DENV Vero (EC50, μM). It counts as cell-based, dengue virus serotype 2. Here is the method:
(§1) The antiviral activity of the compounds against DENV-2/16681/eGFP was determined in a phenotypic antiviral assay with eGFP read-out, a measure for the amount of virus (TV-WI-03476 and TV-WI-05601). In parallel, cytotoxicity of the compounds was measured using ATPLite™ (PerkinElmer, Waltham, Mass.). The assay was performed in two different cell-lines (Vero and Huh-7) to exclude cell-specific activity of the compound.
(§2) DENV-2/16681/eGFP was produced by the transfection of the in vitro transcribed RNA of plasmid pFK-DVs-G2A (purchased from Prof. R. Bartenschlager, University of Heidelberg, Germany; FIG. 1) into Huh-7 cells (human hepatocarcinoma cells; kindly provided by Prof. R. Bartenschlager) (TV-WI-04247).
(§3) In brief, 2,500 Vero cells (African green monkey kidney cells; European Collection of Cell Cultures [ECACC], Porton Down, UK; catalogue number 84113001) or Huh-7 cells were seeded in 384-well plates containing 9-fold serially diluted test compound. After incubating 24 h at 37° C., Vero and Huh-7 cells were infected with DENV-2/16681/eGFP at a multiplicity of infection (MOI) of 1 and 5, respectively. After 3 days of incubation at 37° C., the viral replication was quantified by measuring eGFP expression in the cells with a laser microscope. The 50% effective concentration (EC50) was defined as the concentration inhibiting 50% of the eGFP expression of the compound-treated DENV-infected cells vs. the untreated DENV-infected cells (virus control), using the cell controls as baseline of eGFP signal (i.e., 0% signal). In the same way, the 90% effective concentration (EC90) was calculated.

The nature of data set [2]: Cytotoxicity in Huh-7 cells (ATPlite cell viability). It counts as cell-based. As to conditions: human, Table 1A, read-out: Tox Huh-7 (CC50). Here is the method:
as §1
(§4) In parallel, cytotoxic effects of the compounds (50% cytotoxic concentration [CC50] and 90% cytotoxic concentration [CC90]) were evaluated using an ATPlite cell viability luminescence assay (PerkinElmer). To this end, ATPlite was added to the wells according to the supplier's instructions once the eGFP read-out was performed, and the luminescence was measured; a measure directly relating to the number of viable cells. The CC50 was determined as the 50% inhibitory concentration for the luminescent signal in compound-treated DENV-infected cells compared to untreated DENV-infected cells (virus control), using a medium control as baseline of emitted light (i.e., 0% signal).
In general terms: Cellular ATP, detected with luciferase, serves as a proxy for viable cell number.

Data set [3] relates to DENV-2/16681/eGFP. Kind of data set: Antiviral activity against DENV-2/16681/eGFP in Huh-7 cells (eGFP read-out). It counts as cell-based, dengue virus serotype 2. Particulars: Dengue virus, DENV2, Huh-7, 72 h, read-out: DENV Huh-7 (EC50, μM). Here is the method:
as §1, §2, §3

The nature of data set [4]: Cytotoxicity in Vero cells (ATPlite cell viability). It counts as cell-based. Particulars: African green monkey, Table 1A, read-out: Tox Vero (CC50). On the procedure:
as §1, §4

In data set [5] the test system is HCV replicon (NS3-NS5B regions of HCV type 1b) in Huh-7 luc/neo cells. Briefly: HCV replicon assay (Huh-Luc cells, luciferase read-out). In kind it is cell-based. Particulars: Hepatitis C virus. An excerpt:
The compounds of Formula (I) were examined for activity against HCV in a cellular assay. […] The cellular assay was based on a bicistronic expression construct, as described by Lohmann et al. (1999) Science vol. 285 pp. 110-113 with modifications described by Krieger et al. (2001) Journal of Virology 75: 4614-4624, in a multi-target screening strategy.
In essence, the method was as follows. The assay utilized the stably transfected cell line Huh-7 luc/neo (hereafter referred to as Huh-Luc). This cell line harbors an RNA encoding a bicistronic expression construct comprising the wild type NS3-NS5B regions of HCV type 1b translated from an internal ribosome entry site (IRES) from encephalomyocarditis virus (EMCV), preceded by a reporter portion (FfL-luciferase), and a selectable marker portion (neo^R, neomycine phosphotransferase). The construct is bordered by 5′ and 3′ NTRs (non-translated regions) from HCV genotype 1b. Continued culture of the replicon cells in the presence of G418 (neo^R) is dependent on the replication of the HCV-RNA. The stably transfected replicon cells that express HCV-RNA, which replicates autonomously and to high levels, encoding inter alia luciferase, were used for screening the antiviral compounds.
The replicon cells were plated in 384-well plates in the presence of the test and control compounds which were added in various concentrations. Following an incubation of three days, HCV replication was measured by assaying luciferase activity (using standard luciferase assay substrates and reagents and a Perkin Elmer ViewLux™ ultraHTS microplate imager). Replicon cells in the control cultures have high luciferase expression in the absence of any inhibitor. The inhibitory activity of the compound on luciferase activity was monitored on the Huh-Luc cells, enabling a dose-response curve for each test compound. EC50 values were then calculated, which value represents the amount of the compound required to decrease the level of detected luciferase activity by 50%, or more specifically, the ability of the genetically linked HCV replicon RNA to replicate.
In general terms: In antiviral work, replicon cells carry a viral genome segment that copies itself.

The next data set relates to CHIKV strain S27. Kind of data set: CHIKV CPE inhibition assay in Huh7 cells. It counts as cell-based. Particulars: Chikungunya virus. Here is the method: The antiviral activities of the nucleoside analogs against chikungunya virus (CHIKV) were tested using a cell-based high-throughput CPE (cytopathic effect) inhibition assay. In this assay, CHIKV strain S27 and Huh7 cells (a human hepatoma cell line) were employed. The test compounds were prepared in a 9-point fourfold serial dilutions and plated in a 384-well plate. Then, a density of 8000 cells/well and an MOI (Multiplicity of Infection) of 0.25 CHIKV were added to each well. The plates were incubated at 37° C./5% CO2 for 2 days. The antiviral activity of a test compound was measured by addition of an ATPLite™ 1-step kit (PerkinElmer), which measures the ATP levels in live cells protected from viral CPE by a test compound. The cytotoxicity of test compounds was measured in parallel in the absence of virus infection. The readout is luminescence.

[6] abbreviates: Huh-7, 48 h, read-out: CHIKV Huh-7 (EC50, μM).
[7] abbreviates: Huh-7, 72 h, Table 1A, Huh-Luc replicon cells, 3 days, read-out: HCV Huh-7 (EC50).
Setting [8] is: Huh-7, 48 h, Table 1A, Huh7 cells, MOI 0.25, 2 days, read-out: CHIKV Huh-7 (EC50).

Molecules are shown by their SMILES. Where two headings read alike, the source gives them in different places.

Usually EC50 stands for the concentration needed to bring the measured effect to its halfway point. As a reminder, the CC50 is the concentration giving 50% cytotoxicity. Turning to `O=c1ccn([C@@H]2O[C@](F)(COP(=O)(Oc3ccccc3Cl)OC3CCCC3)[C@@H](O)[C@]23CCS3)c(=O)[nH]1` (stereo partly drawn) [Compound 34, 2-chlorophenyl cyclopentyl (((4R,5R,7S,8R)-5-(2,4-dioxo-3,4-dihydropyrimidin-1(2H)-yl)-7-fluoro-8-hydroxy-6-oxa-1-thiaspiro[3.4]octan-7-yl)methyl) phosphate], the EC50 in the data set with DENV-2/16681/eGFP [1] was 35 µM; in the data set on DENV-2/16681/eGFP [3] it was 53 µM; in data set [5] (Huh-7, 72 h, read-out: HCV Huh-7 (EC50, μM)) it was > 100 µM; in the data set on CHIKV strain S27 (setting [6]) it was > 100 µM. The CC50 in data set [2] and in data set [4] was > 100 µM throughout.
Regarding `CC(C)C(=O)OC[C@H]1O[C@@H](n2ccc(=O)[nH]c2=O)[C@@]2(CCS2)[C@@H]1OC(=O)C(C)C` [Compound 10, (4R,5R,7R,8R)-5-(2,4-dioxo-3,4-dihydropyrimidin-1(2H)-yl)-7-((isobutyryloxy)methyl)-6-oxa-1-thiaspiro[3.4]octan-8-yl isobutyrate], the EC50 (in the data set on DENV-2/16681/eGFP [1]; with DENV-2/16681/eGFP [3]; in data set [5] (setting [7]); in the data set on CHIKV strain S27 (setting [6])) was > 100 µM each time. For the same compound, the CC50 in data set [2] and in data set [4] was > 100 µM each time.
For `O=c1ccn([C@@H]2O[C@]3(F)CO[P@@](=O)(NC4CCC4)O[C@H]3[C@]23CCS3)c(=O)[nH]1` [Compound 40b, 1-((2S,2′R,4aS,6R,7aR)-2-(cyclobutylamino)-4a-fluoro-2-oxidotetrahydrospiro[furo[3,2-d][1,3,2]dioxaphosphinine-7,2′-thietan]-6-yl)pyrimidine-2,4(1H,3H)-dione], the EC50 (in the data set with DENV-2/16681/eGFP [1]; with DENV-2/16681/eGFP [3]; in data set [5] (setting [7]); in the data set on CHIKV strain S27 (setting [8])) was > 100 µM throughout. Moreover, the CC50 in data set [2] and in data set [4] was > 100 µM each time.
Regarding `CC(C)OC(=O)[C@H](C)NP(=O)(OC[C@@]1(F)O[C@@H](n2ccc(=O)[nH]c2=O)[C@@]2(CCS2)[C@@H]1O)Oc1ccccc1` (stereo partly drawn) [Compound 23, (2S)-isopropyl 2-(((((4R,5R,7S,8R)-5-(2,4-dioxo-3,4-dihydropyrimidin-1(2H)-yl)-7-fluoro-8-hydroxy-6-oxa-1-thiaspiro[3.4]octan-7-yl)methoxv)(phenoxy)phosphoryl)amino)propanoate], the EC50 came out at 85 µM in the data set on DENV-2/16681/eGFP [1]; 14 µM in the data set on DENV-2/16681/eGFP [3]; 2 µM in data set [5] (setting [7]); 2 µM in data set [5] (Huh-7, Table 1C, comparison with spiro-oxetane derivatives, read-out: HCV, Huh-7 (EC50)); 3 µM in the data set on CHIKV strain S27 (setting [8]); 3 µM with CHIKV strain S27 (Huh-7, Table 1C, comparison with spiro-oxetane derivatives, read-out: CHIKV, Huh7 (EC50)). The CC50 in data set [2] and in data set [4] was > 100 µM each time.
For the compound `Nc1ccn([C@@H]2O[C@](F)(CO)[C@@H](O)[C@]23CCS3)c(=O)n1` [Compound 27, 4-amino-1-((4R,5R,7S,8R)-7-fluoro-8-hydroxy-7-(hydroxymethyl)-6-oxa-1-thiaspiro[3.4]octan-5-yl)pyrimidin-2(1H)-one], the EC50 in the data set on DENV-2/16681/eGFP [1] was 50 µM; with DENV-2/16681/eGFP [3], 77 µM; in data set [5] (setting [7]), > 100 µM; with CHIKV strain S27 (setting [6]), > 100 µM. In addition, the CC50 in data set [2] and in data set [4] was > 100 µM throughout.
On to `O=c1ccn([C@@H]2O[C@](F)(COP(=O)(NC3CCC3)Oc3ccc(Cl)cc3)[C@@H](O)[C@]23CCS3)c(=O)[nH]1` (stereo partly drawn) [Compound 39, 4-chlorophenyl (((4R,5R,7S,8R)-5-(2,4-dioxo-3,4-dihydropyrimidin-1(2H)-yl)-7-fluoro-8-hydroxy-6-oxa-1-thiaspiro[3.4]octan-7-yl)methyl) cyclobutylphosphoramidate], for which the EC50 is 45 µM in the data set with DENV-2/16681/eGFP [1], 49 µM in the data set with DENV-2/16681/eGFP [3], > 100 µM in data set [5] (setting [7]) and > 100 µM in the data set with CHIKV strain S27 (setting [8]). The CC50 in data set [2] and in data set [4] was > 100 µM in each case.
Turning to `Nc1ncnc2c1ncn2[C@@H]1O[C@H](CO)[C@@H](O)[C@]12CCS2` [Compound 67, (4R,5R,7R,8R)-5-(6-amino-9H-purin-9-yl)-7-(hydroxymethyl)-6-oxa-1-thiaspiro[3.4]octan-8-ol], the EC50 (in the data set with DENV-2/16681/eGFP [1]; in the data set on DENV-2/16681/eGFP [3]; in data set [5] (setting [7]); in the data set with CHIKV strain S27 (setting [6])) was > 50 µM throughout. Moreover, the CC50 in data set [2] and in data set [4] was > 50 µM throughout.
Regarding `O=c1ccn([C@@H]2O[C@]3(F)COP(=O)(OC4CCCC4)O[C@H]3[C@]23CCS3)c(=O)[nH]1` (stereo partly drawn) [Compound 35, 1-((2′R,4aS,6R,7aR)-2-(cyclopentyloxy)-4a-fluoro-2-oxidotetrahydrospiro[furo[3,2-d][1,3,2]dioxaphosphinine-7,2′-thietan]-6-yl)pyrimidine-2,4(1H,3H)-dione], the EC50 was > 100 µM in the data set with DENV-2/16681/eGFP [1], > 100 µM in the data set with DENV-2/16681/eGFP [3], 25 µM in data set [5] (setting [7]) and 72 µM in the data set on CHIKV strain S27 (setting [6]). Besides, the CC50 in data set [2] and in data set [4] was > 100 µM each time.
Regarding `Nc1ccn([C@@H]2O[C@H](CO)[C@@H](O)[C@]23CCS3)c(=O)n1` [Compound 12, 4-amino-1-((4R,5R,7R,8R)-8-hydroxy-7-(hydroxymethyl)-6-oxa-1-thiaspiro[3.4]octan-5-yl)pyrimidin-2(1H)-one], the EC50 (in the data set with DENV-2/16681/eGFP [1]; in the data set on DENV-2/16681/eGFP [3]; in data set [5] (setting [7]); in the data set with CHIKV strain S27 (setting [6])) was > 100 µM in each case. In addition, the CC50 in data set [2] and in data set [4] was > 100 µM each time.
`O=c1ccn([C@@H]2O[C@](F)(CO)[C@@H](O)[C@]23CCS3)c(=O)[nH]1` [Compound 22, 1-((4R,5R,7S,8R)-7-fluoro-8-hydroxy-7-(hydroxymethyl)-6-oxa-1-thiaspiro[3.4]octan-5-yl)pyrimidine-2,4(1H,3H)-dione]: the EC50 with DENV-2/16681/eGFP [1] is 63 µM; with DENV-2/16681/eGFP [3], 69 µM; in data set [5] (setting [7]) it was 84 µM; in the data set with CHIKV strain S27 (setting [6]), > 100 µM. Moreover, the CC50 in data set [2] and in data set [4] was > 100 µM in each case.
